Measurements: ChEMBL document CHEMBL5233266, “β-Carboline as a Privileged Scaffold for Multitarget Strategies in Alzheimer's Disease Therapy” (J Med Chem, 2021)
“And” between values parts separate entries of the source, which are not always exact repeats. Equal entries are not always repeated. One block for each compound: values may come before it.

How the values were obtained:
[1] = biological target: T1, Acetylcholinesterase (Homo sapiens, UniProt P22303); assay: Inhibition of AChE (unknown origin)
[2] = biological target: Cholinesterase (Homo sapiens, UniProt P06276); assay: Inhibition of BuChE (unknown origin)
[3] = biological target: T1, Acetylcholinesterase; assay: Inhibition of AChE (unknown origin) by Ellman's method
[4] = biological target: GABA-A receptor; anion channel; assay: Displacement of [3H]flunitrazepam from GABAA (unknown origin ) receptor by radioligand binding assay; format: protein-complex assay, Homo sapiens
[5] = biological target: T2, Gamma-aminobutyric acid receptor subunit alpha-1 (Homo sapiens, UniProt P14867); assay: Binding affinity to human recombinant GABAA alpha1 receptor assessed as inhibition constant incubated for 1 hrs by liquid scintillation counting analysis
T2 sequence (P14867 whole entry): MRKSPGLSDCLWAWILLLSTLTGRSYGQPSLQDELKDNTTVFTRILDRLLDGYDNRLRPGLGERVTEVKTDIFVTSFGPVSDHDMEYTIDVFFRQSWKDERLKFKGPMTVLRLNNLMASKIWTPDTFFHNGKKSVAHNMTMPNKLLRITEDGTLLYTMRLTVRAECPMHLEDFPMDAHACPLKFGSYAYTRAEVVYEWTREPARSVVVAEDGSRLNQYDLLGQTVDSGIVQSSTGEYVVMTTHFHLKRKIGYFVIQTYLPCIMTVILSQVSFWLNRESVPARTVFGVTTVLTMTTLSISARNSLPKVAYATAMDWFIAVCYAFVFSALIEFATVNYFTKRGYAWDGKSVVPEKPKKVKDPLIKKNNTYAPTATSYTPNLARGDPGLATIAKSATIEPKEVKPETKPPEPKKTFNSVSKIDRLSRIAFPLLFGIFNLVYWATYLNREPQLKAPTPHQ

[6] = biological target: T3, Gamma-aminobutyric acid receptor subunit alpha-2 (Homo sapiens, UniProt P47869); assay: Binding affinity to human recombinant GABAA alpha2 receptor assessed as inhibition constant incubated for 1 hrs by liquid scintillation counting analysis
T3 sequence (P47869 whole entry): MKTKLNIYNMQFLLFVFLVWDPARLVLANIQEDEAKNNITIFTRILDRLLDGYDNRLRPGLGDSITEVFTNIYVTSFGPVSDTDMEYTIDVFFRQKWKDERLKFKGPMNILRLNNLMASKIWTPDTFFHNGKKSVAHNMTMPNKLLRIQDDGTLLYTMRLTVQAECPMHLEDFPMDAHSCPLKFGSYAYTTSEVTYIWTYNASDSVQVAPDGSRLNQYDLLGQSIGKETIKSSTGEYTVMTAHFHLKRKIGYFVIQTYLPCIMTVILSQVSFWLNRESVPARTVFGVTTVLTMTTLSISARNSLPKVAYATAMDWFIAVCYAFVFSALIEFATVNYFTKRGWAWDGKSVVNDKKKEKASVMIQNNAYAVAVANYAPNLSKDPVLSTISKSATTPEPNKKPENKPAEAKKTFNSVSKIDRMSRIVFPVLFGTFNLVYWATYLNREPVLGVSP

[7] = biological target: T4, Gamma-aminobutyric acid receptor subunit alpha-3 (Homo sapiens, UniProt P34903); assay: Binding affinity to human recombinant GABAA alpha3 receptor assessed as inhibition constant incubated for 1 hrs by liquid scintillation counting analysis
T4 sequence (P34903 whole entry): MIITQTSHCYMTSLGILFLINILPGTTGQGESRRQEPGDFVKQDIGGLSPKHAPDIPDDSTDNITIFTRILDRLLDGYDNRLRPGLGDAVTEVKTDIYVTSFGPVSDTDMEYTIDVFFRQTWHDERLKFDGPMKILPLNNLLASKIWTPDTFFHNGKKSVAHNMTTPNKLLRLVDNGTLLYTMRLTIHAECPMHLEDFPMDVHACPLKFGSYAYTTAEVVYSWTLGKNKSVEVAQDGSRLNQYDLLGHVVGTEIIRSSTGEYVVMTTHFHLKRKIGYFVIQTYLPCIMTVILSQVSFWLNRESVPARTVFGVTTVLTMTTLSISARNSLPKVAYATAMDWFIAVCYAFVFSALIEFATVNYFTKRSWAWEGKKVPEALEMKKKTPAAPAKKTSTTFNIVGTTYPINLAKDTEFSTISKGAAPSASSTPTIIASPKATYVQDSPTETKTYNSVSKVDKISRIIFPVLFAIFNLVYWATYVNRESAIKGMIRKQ

[8] = biological target: Gamma-aminobutyric acid receptor subunit alpha-4 (Homo sapiens, UniProt P48169); assay: Binding affinity to human recombinant GABAA alpha4 receptor assessed as inhibition constant incubated for 1 hrs by liquid scintillation counting analysis
[9] = biological target: T5, Gamma-aminobutyric acid receptor subunit alpha-5 (Homo sapiens, UniProt P31644); assay: Binding affinity to human recombinant GABAA alpha5 receptor assessed as inhibition constant incubated for 1 hrs by liquid scintillation counting analysis
T5 sequence (P31644 whole entry): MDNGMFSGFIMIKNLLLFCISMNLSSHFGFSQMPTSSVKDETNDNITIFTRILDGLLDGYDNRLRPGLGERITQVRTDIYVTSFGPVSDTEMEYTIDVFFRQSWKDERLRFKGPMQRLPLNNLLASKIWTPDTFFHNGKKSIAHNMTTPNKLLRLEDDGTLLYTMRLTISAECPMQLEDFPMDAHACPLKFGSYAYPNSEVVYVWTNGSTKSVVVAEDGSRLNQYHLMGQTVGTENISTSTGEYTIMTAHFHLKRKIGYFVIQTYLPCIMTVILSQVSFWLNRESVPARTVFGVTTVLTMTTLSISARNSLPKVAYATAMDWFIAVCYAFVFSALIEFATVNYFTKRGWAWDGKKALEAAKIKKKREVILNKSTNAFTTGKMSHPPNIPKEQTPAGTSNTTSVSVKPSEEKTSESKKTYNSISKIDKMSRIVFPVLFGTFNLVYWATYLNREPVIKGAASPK

[10] = biological target: Gamma-aminobutyric acid receptor subunit alpha-6 (Homo sapiens, UniProt Q16445); assay: Binding affinity to human recombinant GABAA alpha6 receptor assessed as inhibition constant incubated for 1 hrs by liquid scintillation counting analysis
[11] = biological target: 5-hydroxytryptamine receptor 5A (Homo sapiens, UniProt P47898); assay: Binding affinity to 5-HT5AR (unknown origin) assessed as inhibition constant
[12] = biological target: T6, 5-hydroxytryptamine receptor 2C (Homo sapiens, UniProt P28335); assay: Binding affinity to 5-HT2C (unknown origin) assessed as inhibition constant
T6 sequence (P28335 whole entry): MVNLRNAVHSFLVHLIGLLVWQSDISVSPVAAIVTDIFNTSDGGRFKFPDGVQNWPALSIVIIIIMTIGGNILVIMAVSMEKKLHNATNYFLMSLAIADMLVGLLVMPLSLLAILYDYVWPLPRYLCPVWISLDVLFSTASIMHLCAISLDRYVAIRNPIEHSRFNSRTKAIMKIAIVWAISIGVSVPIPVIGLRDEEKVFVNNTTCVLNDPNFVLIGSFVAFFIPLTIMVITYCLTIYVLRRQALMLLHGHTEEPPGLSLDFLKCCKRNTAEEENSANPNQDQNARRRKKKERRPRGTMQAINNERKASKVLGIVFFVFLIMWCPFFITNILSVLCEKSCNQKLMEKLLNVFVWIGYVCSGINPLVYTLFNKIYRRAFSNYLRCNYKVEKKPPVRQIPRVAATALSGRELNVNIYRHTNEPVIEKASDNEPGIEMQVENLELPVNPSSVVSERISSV

[13] = biological target: T7, 5-hydroxytryptamine receptor 2B (Homo sapiens, UniProt P41595); assay: Binding affinity to 5-HT2BR (unknown origin) assessed as inhibition constant
[14] = biological target: Glutamate receptor ionotropic, NMDA 2B (Homo sapiens, UniProt Q05586+Q13224); assay: Inhibition of NMDA receptor NR2B subunit (unknown origin)
[15] = biological target: Dual specificity tyrosine-phosphorylation-regulated kinase 1A (Homo sapiens, UniProt Q13627); assay: Inhibition of DYRK1A (unknown origin)
[16] = biological target: cGMP-specific 3',5'-cyclic phosphodiesterase (Homo sapiens, UniProt O76074); assay: Binding affinity to PDE5 (unknown origin) assessed as inhibition constant
[17] = biological target: T8, Amine oxidase [flavin-containing] A (Homo sapiens, UniProt P21397); assay: Inhibition of MAO-A (unknown origin)
T8 sequence (P21397 whole entry): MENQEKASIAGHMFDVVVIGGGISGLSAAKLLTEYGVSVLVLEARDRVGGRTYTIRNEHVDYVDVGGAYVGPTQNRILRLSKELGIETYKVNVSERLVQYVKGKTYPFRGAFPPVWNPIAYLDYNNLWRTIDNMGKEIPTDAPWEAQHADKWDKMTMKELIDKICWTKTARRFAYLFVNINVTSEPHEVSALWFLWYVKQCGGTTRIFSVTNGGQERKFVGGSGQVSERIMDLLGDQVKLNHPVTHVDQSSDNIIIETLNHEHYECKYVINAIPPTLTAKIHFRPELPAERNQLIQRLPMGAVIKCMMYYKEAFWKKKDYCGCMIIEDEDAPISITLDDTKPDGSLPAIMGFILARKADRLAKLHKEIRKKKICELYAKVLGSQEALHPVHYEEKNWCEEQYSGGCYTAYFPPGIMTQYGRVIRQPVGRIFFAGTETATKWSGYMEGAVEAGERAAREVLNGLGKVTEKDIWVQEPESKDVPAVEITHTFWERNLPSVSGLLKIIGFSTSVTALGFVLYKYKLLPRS

[18] = biological target: 5-hydroxytryptamine receptor 2A (Rattus norvegicus, UniProt P14842); assay: Displacement of [3H]-ketanserin from rat 5-HT2A expressed in mouse NIH/3T3 cells assessed as inhibition constant by Cheng-Prusoff equation analysis; format: cell-based
[19] = biological target: 5-hydroxytryptamine receptor 2B (Rattus norvegicus, UniProt P30994); assay: Displacement of [3H]-ketanserin from rat 5-HT2B expressed in mouse NIH/3T3 cells assessed as inhibition constant by Cheng-Prusoff equation analysis; format: cell-based
[20] = biological target: T7, 5-hydroxytryptamine receptor 2B; assay: Binding affinity to 5-HT2B (unknown origin) assessed as equilibrium binding constant

T1 sequence (P22303 whole entry): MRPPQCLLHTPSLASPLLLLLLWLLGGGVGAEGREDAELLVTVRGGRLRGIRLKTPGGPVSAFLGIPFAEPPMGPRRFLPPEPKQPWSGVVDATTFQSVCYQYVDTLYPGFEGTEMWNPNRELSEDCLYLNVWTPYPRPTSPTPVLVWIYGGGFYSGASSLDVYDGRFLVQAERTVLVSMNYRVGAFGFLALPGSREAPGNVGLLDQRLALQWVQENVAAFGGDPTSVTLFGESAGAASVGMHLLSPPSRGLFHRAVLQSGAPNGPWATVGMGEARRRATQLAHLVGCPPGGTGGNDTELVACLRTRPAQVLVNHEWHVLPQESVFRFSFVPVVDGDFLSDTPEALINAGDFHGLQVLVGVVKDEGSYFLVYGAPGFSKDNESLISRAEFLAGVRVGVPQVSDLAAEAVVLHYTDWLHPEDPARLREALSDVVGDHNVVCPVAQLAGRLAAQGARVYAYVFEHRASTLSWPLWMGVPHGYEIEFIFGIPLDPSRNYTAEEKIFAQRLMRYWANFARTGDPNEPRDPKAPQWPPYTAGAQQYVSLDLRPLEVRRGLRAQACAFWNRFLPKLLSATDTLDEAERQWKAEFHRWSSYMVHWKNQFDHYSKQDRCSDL
T7 sequence (P41595 whole entry): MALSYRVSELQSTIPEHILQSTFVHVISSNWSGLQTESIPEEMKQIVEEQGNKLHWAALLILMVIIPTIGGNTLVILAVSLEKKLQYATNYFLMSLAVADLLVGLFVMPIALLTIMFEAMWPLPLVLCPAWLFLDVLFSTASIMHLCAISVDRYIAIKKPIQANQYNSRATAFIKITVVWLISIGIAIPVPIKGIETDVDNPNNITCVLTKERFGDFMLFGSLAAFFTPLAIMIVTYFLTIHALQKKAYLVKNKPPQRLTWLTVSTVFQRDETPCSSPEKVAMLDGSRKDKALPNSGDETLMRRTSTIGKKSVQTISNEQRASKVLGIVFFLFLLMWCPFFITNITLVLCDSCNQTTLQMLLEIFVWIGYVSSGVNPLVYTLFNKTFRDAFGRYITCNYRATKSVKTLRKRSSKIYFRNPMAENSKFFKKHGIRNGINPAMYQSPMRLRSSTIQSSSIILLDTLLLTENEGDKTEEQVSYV
Chain of Cholinesterase (P06276 whole entry): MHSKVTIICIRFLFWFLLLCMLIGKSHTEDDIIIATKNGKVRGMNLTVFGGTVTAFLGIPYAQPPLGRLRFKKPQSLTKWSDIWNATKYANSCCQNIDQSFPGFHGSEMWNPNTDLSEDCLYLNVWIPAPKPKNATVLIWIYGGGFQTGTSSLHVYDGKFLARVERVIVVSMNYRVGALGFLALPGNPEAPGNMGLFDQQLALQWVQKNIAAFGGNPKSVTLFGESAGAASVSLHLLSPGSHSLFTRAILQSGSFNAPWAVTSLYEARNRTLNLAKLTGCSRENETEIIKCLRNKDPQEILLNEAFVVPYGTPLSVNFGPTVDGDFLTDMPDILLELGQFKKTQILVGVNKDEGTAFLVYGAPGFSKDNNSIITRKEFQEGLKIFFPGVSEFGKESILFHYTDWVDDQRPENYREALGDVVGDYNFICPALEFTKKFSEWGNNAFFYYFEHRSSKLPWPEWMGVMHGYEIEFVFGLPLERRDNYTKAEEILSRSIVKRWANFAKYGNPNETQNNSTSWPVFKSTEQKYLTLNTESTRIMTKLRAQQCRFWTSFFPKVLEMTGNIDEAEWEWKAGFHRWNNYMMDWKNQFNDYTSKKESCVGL
Chain of Gamma-aminobutyric acid receptor subunit alpha-6 (Q16445 whole entry): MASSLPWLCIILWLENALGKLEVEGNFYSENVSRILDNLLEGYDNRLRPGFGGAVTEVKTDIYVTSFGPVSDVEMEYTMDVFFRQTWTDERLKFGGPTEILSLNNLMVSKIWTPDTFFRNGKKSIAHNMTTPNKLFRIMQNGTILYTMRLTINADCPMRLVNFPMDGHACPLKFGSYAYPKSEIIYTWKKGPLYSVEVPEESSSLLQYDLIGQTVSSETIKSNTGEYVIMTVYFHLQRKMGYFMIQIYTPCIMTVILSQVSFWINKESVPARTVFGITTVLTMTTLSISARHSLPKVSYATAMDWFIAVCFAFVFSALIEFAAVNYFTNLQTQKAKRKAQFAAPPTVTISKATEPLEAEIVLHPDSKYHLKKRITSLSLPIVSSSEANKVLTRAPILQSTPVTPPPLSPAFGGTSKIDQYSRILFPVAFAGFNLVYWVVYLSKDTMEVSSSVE
Chain of 5-hydroxytryptamine receptor 2A (P14842 whole entry): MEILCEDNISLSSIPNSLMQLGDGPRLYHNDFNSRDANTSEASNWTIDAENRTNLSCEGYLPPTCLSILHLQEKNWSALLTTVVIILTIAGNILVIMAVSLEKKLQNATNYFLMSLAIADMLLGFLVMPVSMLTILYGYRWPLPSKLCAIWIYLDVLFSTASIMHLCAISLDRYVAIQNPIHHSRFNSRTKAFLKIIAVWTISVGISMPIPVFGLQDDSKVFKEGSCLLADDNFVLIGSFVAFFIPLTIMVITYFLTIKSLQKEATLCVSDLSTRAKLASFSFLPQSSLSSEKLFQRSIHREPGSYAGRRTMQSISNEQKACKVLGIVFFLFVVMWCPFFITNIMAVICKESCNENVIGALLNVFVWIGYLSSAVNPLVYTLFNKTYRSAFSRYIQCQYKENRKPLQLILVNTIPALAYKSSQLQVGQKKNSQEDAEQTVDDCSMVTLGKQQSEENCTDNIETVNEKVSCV
Chain of Gamma-aminobutyric acid receptor subunit alpha-4 (P48169 whole entry): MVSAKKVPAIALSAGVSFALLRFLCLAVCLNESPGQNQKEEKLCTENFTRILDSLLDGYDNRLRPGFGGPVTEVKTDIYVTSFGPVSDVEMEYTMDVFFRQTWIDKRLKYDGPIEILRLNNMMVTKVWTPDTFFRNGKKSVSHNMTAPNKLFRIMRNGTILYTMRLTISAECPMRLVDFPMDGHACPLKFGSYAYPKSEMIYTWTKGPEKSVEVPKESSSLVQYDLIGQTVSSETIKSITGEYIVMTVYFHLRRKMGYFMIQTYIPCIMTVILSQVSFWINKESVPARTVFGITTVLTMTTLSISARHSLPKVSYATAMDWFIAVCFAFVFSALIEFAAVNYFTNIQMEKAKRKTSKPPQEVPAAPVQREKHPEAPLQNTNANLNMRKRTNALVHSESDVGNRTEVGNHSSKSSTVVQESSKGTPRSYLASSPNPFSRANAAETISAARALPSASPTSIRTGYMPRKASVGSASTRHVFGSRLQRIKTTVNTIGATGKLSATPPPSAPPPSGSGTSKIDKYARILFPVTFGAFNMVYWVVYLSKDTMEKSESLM
Chain of 5-hydroxytryptamine receptor 5A (P47898 whole entry): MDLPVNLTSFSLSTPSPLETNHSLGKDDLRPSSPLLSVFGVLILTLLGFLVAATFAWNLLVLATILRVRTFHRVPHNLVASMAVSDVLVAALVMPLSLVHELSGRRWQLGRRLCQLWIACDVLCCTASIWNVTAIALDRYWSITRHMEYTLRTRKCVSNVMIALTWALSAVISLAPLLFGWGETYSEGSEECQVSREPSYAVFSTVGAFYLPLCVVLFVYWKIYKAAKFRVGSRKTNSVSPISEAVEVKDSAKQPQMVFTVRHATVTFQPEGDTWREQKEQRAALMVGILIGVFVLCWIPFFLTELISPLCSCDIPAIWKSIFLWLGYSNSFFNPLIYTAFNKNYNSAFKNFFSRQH
Chain of Glutamate receptor ionotropic, NMDA 2B (Q13224 whole entry, one chain of several): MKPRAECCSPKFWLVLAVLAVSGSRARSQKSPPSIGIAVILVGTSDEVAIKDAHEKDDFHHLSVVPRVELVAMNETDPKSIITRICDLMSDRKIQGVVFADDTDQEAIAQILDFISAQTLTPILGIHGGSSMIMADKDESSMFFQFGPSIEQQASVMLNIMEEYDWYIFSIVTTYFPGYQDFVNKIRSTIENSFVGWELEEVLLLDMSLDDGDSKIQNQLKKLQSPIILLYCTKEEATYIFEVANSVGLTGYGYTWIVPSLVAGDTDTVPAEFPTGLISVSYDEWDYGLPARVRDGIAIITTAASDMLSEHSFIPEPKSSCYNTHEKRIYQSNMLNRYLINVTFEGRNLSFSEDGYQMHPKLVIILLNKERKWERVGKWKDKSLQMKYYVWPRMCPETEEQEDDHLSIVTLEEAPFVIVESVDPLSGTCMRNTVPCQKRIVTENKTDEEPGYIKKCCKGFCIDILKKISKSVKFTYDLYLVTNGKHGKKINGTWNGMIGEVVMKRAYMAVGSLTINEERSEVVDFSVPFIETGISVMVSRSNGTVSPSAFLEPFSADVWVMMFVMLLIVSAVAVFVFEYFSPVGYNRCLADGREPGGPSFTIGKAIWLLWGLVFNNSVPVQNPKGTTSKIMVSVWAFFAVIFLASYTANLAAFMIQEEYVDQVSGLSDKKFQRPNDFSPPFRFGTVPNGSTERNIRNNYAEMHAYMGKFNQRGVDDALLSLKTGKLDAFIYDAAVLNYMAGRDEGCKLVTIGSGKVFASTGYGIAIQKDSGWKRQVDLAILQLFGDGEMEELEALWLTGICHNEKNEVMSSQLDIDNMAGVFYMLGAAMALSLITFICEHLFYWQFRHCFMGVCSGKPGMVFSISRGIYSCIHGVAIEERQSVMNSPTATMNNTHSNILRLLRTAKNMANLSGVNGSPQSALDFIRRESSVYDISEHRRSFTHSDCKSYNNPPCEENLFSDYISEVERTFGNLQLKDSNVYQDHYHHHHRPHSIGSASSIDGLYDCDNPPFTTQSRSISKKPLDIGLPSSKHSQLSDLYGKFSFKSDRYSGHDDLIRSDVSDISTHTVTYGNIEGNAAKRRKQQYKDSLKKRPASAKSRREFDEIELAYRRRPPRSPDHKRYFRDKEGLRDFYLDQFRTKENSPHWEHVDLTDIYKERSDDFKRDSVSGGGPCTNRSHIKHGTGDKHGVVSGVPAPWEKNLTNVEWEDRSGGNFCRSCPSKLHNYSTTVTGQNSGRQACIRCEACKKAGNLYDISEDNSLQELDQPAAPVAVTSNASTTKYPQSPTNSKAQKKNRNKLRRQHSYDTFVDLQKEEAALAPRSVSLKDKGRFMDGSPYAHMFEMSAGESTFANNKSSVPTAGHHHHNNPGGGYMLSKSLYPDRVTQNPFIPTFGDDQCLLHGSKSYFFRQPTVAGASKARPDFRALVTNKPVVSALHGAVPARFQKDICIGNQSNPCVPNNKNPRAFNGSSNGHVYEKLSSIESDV

Structure (SMILES): CCOC(=O)[n+]1ccc2c([nH]c3cc(OC)ccc32)c1C
IC50 [1]: 250 nM
IC50 [2]: 1500 nM
IC50 [3]: 250 nM

Structure (SMILES): CC(C)(C)OC(=O)c1cc2c(cn1)[nH]c1ccccc12
IC50 [4]: 1 nM
Ki [5]: 0.7 nM
Ki [6]: 15 nM
Ki [7]: 19 nM
Ki [8]: 1000 nM
Ki [9]: 110 nM
Ki [10]: > 5000 nM

Ki [11]: 170 nM
Ki [12]: 170 nM
Ki [13]: 170 nM
Structure (SMILES): Oc1ccc2[nH]c3c(-c4c[nH]c5ccccc45)nccc3c2c1

IC50 [14]: 27000 nM
Structure (SMILES): c1ccc(C[C@@H]2NCCc3c2[nH]c2ccccc32)cc1

Structure (SMILES): c1ccc2c(c1)[nH]c1cnccc12 [NORHARMANE]
IC50 [1]: > 40000 nM
IC50 [2]: > 40000 nM
IC50 [15]: > 1800 nM
IC50 [4]: 1600 nM

Ki [16]: 64 nM
Structure (SMILES): Nc1ccc(-c2ccc(C(=O)N3CCc4c([nH]c5ccccc45)C3c3ccc4c(c3)OCO4)o2)cc1 (stereo not given)

Structure (SMILES): COC(=O)c1cc2c(cn1)[nH]c1ccccc12 [BETA-CCM]
IC50 [4]: 1 nM
Ki [5]: 2 nM
Ki [6]: 7 nM
Ki [7]: 72 nM
Ki [8]: 1000 nM
Ki [9]: 44 nM
Ki [10]: 4400 nM

Structure (SMILES): Cc1nccc2c1[nH]c1ccccc12 [HARMAN]
IC50 [1]: > 10000 nM
IC50 [2]: > 10000 nM
IC50 [15]: > 1800 nM
IC50 [17]: 29 nM
IC50 [4]: 2500 nM

Ki [18]: 5 nM
Ki [19]: 0.2 nM
Kb [20]: < 0.3 nM and 0.08 nM
Structure (SMILES): COc1ccc(CC2NCCc3c2[nH]c2cc(C)c(C)cc32)cc1OC (stereo not given)

Ki [16]: 51 nM
Structure (SMILES): Nc1cccc(-c2ccc(C(=O)N3CCc4c([nH]c5ccccc45)C3c3ccc4c(c3)OCO4)o2)c1 (stereo not given)

Structure (SMILES): Brc1cccc2[nH]c3c(c12)CCNC3
Ki [18]: < 180 nM

Structure (SMILES): C[n+]1ccc2c(c1)[nH]c1ccccc12 [NORMELINONINE F]
IC50 [2]: 800 nM
IC50 [3]: 4100 nM

Ki [11]: 170 nM
Ki [12]: 170 nM
Ki [13]: 170 nM
Structure (SMILES): c1ccc2c(-c3nccc4c3[nH]c3ccccc34)c[nH]c2c1

Structure (SMILES): CC(C)n1c2ccccc2c2cc[n+](-c3ccccc3)cc21
IC50 [1]: 540 nM
IC50 [2]: 37000 nM
IC50 [3]: 3100 nM

Ki [16]: 86 nM
Structure (SMILES): CC(C)CCn1c2c(c3c(O)cc(O)cc31)CCn1c-2nc2ccccc2c1=O
